Reference: publication PMC9992855, “Functional polyamine metabolic enzymes and pathways encoded by the virosphere” (Proceedings of the National Academy of Sciences of the …, 2023)

Legend:
[1] = tested on: T1, Pelagiphage HTVC201P "AdoMetDC" (pyruvoyl-dependent ADC); assay: decarboxylase activity assay; assay type: biochemical, Pelagibacter phage HTVC201P; details: 27 °C
T1 construct: gene speD; 122 aa; recombinant, purified; class 1b AdoMetDC homolog, pyruvoyl enzyme
Source text: decarboxylase activity assay on Pelagiphage HTVC201P "AdoMetDC" (pyruvoyl-dependent ADC)

KNV1 arginase homolog = tested on: T2, KNV1 arginase homolog; assay: released urea detection; assay type: biochemical, Klosneuvirus KNV1
T2 construct: expressed in E. coli, purified

[2] = tested on: T3, UCP01 AdoMetDC homolog (pyruvoyl-dependent ODC); assay: decarboxylase activity assay; assay type: biochemical, uncultured Myoviridae sp.; details: 26 °C
T3 construct: gene speD; 117 aa; recombinant, purified; pyruvoyl enzyme
Source text: decarboxylase activity assay on UCP01 AdoMetDC homolog (pyruvoyl-dependent ODC)

Klosneuvirus KNV1 ODC = details: 26 °C
[3] = tested on: T4, UCP03 AdoMetDC homolog (pyruvoyl-dependent ODC); details: 26 °C
T4 construct: gene speD
Source text: decarboxylase activity assay on UCP03 AdoMetDC homolog (pyruvoyl-dependent ODC)

[4] = tested on: T5, UCP04 AdoMetDC homolog (pyruvoyl-dependent ODC); details: 26 °C
T5 construct: gene speD
Source text: decarboxylase activity assay on UCP04 AdoMetDC homolog (pyruvoyl-dependent ODC)

[5] = tested on: T6, LBP AdoMetDC homolog (pyruvoyl-dependent ODC); details: 26 °C
T6 construct: gene speD
Source text: decarboxylase activity assay on LBP AdoMetDC homolog (pyruvoyl-dependent ODC)

[6] = tested on: Yellowstone Lake phycodnavirus 2 ODC; details: 26 °C
Source text: decarboxylase activity assay on Yellowstone Lake phycodnavirus 2 ODC

[7] = tested on: T7, UCP02 AdoMetDC homolog (pyruvoyl-dependent ODC); details: 26 °C
T7 construct: gene speD
Source text: decarboxylase activity assay on UCP02 AdoMetDC homolog (pyruvoyl-dependent ODC)

Hyperionvirus sp. APAH = tested on: T8, Hyperionvirus sp. APAH; assay: colorimetric acetate release; assay type: biochemical; details: 26 °C
T8 construct: 351 aa; expressed in E. coli, purified
Source text: colorimetric acetate release on Hyperionvirus sp. APAH

Klosneuvirus KNV1 APAH = tested on: T9, Klosneuvirus KNV1 APAH; assay: colorimetric acetate release; assay type: biochemical; details: 26 °C
T9 construct: 345 aa; expressed in E. coli, purified
Source text: colorimetric acetate release on Klosneuvirus KNV1 APAH

Molecule N=C(N)NCCC[C@H](N)C(=O)O [L-arginine] has a Km [1] of 870 ± 110 µM, a Km (KNV1 arginase homolog) of 1300 ± 160 µM and a Km [2] of 2200 ± 290 µM.

Molecule NCCC[C@H](N)C(=O)O [L-ornithine] has a Km [2] of 5500 ± 290 µM, a Km (Klosneuvirus KNV1 ODC) of 430 ± 20 µM and a Km [3] of 620 ± 10 µM. It also gave a Km [4] of 440 ± 40 µM, a Km [5] of 3800 ± 430 µM and a Km [6] of 540 ± 200 µM. For the same molecule, the Km [7] was 2400 ± 190 µM.

With CC(=O)NCCCNCCCCN [N^1-acetylspermidine] the Km (Hyperionvirus sp. APAH) was 1600 ± 160 µM and the Km (Klosneuvirus KNV1 APAH) was 240 ± 20 µM.

For CC(=O)NCCCCNCCCN [N^8-acetylspermidine], the Km (Hyperionvirus sp. APAH) was 5000 ± 730 µM and the Km (Klosneuvirus KNV1 APAH) was 450 ± 10 µM.
